The values below come from US20060128724A1, “Pyrazole-substituted aminoheteroaryl compounds as protein kinase inhibitors” (AGOURON PHARMACEUTICALS, INC., priority 2004, published 2006).

The first test deals with T1, c-MET (HGFR) (Homo sapiens, UniProt P08581).
T1 construct: purchased Upstate 14-526
T1 sequence (P08581 974-1390 limits assumed): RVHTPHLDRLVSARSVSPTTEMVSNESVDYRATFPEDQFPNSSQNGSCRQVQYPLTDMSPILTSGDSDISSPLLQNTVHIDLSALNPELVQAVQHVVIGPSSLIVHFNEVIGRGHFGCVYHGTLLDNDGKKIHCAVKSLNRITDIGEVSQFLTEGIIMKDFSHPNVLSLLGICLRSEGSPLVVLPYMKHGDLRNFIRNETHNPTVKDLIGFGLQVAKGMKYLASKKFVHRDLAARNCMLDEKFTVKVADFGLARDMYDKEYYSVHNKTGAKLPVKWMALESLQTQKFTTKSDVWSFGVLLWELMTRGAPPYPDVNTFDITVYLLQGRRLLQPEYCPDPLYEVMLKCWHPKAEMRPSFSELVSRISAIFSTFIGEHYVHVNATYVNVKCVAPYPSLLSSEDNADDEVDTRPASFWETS
As to the kind of experiment: HGFR Continuous-Coupled Spectrophotometric Assay. To be noted: Met-2 substrate peptide, 50 nM HGFR, 37° C.; read-out: Met Ki. Format: biochemical. The method in brief: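 Tyrosine kinase activity of 50 nM HGFR on the activation-loop Met-2 peptide, followed as NADH consumption at 340 nm over 10 min at 37 °C in a pyruvate kinase/LDH coupled system, HEPES pH 7.5 buffer with MgCl2 and DTT.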
With `COc1cc(Cl)c(C(C)Oc2cc(-c3cnn(C4CCNCC4)c3)cnc2N)c(Cl)c1OC` (centres unmarked) [Example 154, 3-(1-(2,6-Dichloro-3-dimethoxy-phenyl)-ethoxy]-5-(1-piperidin-4-yl-1H-pyrazol-4-yl)-pyridin-2-ylamine], the Ki (usually the equilibrium dissociation constant of an inhibitor or competing ligand from its target) was found to be 105 nM.

Take `COCC(=O)N1CCC(n2cc(-c3cnc(N)c(OC(C)c4c(Cl)ccc(F)c4Cl)c3)cn2)CC1` (centres unmarked) [Example 124, 1-[4-(4-{6-Amino-5-[1-(2,6-dichloro-3-fluoro-phenyl)-ethoxy]-pyridin-3-yl}-pyrazol-1-yl)-piperidin-1-yl]-2-methoxy-ethanone]: the Ki came to 14 nM.

Consider `CC(Oc1cc(-c2cnn(CC3(C)COC3)c2)cnc1N)c1c(Cl)ccc(F)c1Cl` (centres unmarked) [Example 131, 3-[1-(2,6-Dichloro-3-fluoro-phenyl)-ethoxy]-5-[1-(3-methyl-oxetan-3-ylmethyl)-1H-pyrazol-4-yl]-pyridin-2-ylamine], for which the inhibition constant (Ki) was 50 nM.

With `CC(Oc1cc(-c2cnn(C3CCNCC3)c2)cnc1N)c1cc(F)ccc1Br` (centres unmarked) [Example 128, 3-[1-(2-Bromo-5-fluoro-phenyl)-ethoxy]-5-(1-piperidin-4-yl-1H-pyrazol-4-yl)-pyridin-2-ylamine], the inhibitory constant (Ki) was 349 nM.

For `CC(Oc1cc(-c2cnn(C[C@H]3CCC(=O)N3)c2)cnc1N)c1c(Cl)ccc(F)c1Cl` (stereo partly drawn) [Example 134, 5-(4-{6-Amino-5-[1-(2,6-dichloro-3-fluoro-phenyl)-ethoxy]-pyridin-3-yl}-pyrazol-1-ylmethyl)-pyrrolidin-2R-one], the inhibition constant (Ki) was 24 nM.

In the case of `CC(Oc1cc(-c2cnn(C3CCNCC3)c2)cnc1N)c1c(Cl)c(F)cc(N2CCCC2=O)c1Cl` (centres unmarked) [Example 157, 1-(3-{1-[2-Amino-5-(1-piperidin-4-yl-1H-pyrazol-4-yl)-pyridin-3-yloxy]-ethyl]-2,4-dichloro-5-fluoro-phenyl)-pyrrolidin-2-one], the Ki was found to be 51 nM.

On to `CC(Oc1cc(-c2cnn(C)c2)cnc1N)c1c(Cl)c(F)cc(F)c1Cl` (centres unmarked) [Example 149, 3-[1-(2,6-Dichloro-3,5-difluoro-phenyl)-ethoxy]-5-(1-methyl-1H-pyrazol-4-yl)-pyridin-2-ylamine], for which the inhibitory constant (Ki) was determined as 72 nM.

For the compound `Cc1ccc(Cl)c(C(C)Oc2cc(-c3cnn(C4CCNCC4)c3)cnc2N)c1Cl` (centres unmarked) [Example 143, 3-[1-(2,6-Dichloro-3-methyl-phenyl)-ethoxy]-5-(1-piperidin-4-yl-1H-pyrazol-4-yl)-pyridin-2-ylamine], the inhibition constant Ki stood at 22 nM.

For `CC(Oc1cc(Br)cnc1N)c1c(Cl)c(F)cc(F)c1Cl` (centres unmarked) [Example 145, 5-Bromo-3-[1-(2,6-dichloro-3,5-difluoro-phenyl)-ethoxy]-pyridin-2-ylamine], the inhibition constant Ki came out at 30 nM.

Still in this test, the particulars now being: Met-2 substrate peptide, 50 nM HGFR, 37° C.; read-out: c-Met Ki.
`CCOC(=O)N1CCC(n2cc(-c3cnc(N)c(OC(C)c4c(Cl)ccc(F)c4Cl)c3)cn2)CC1` (centres unmarked) [Example 101, ethyl 4-(4-{6-amino-5-[1-(2,6-dichloro-3-fluorophenyl)ethoxy]pyridin-3-yl}-1H-pyrazol-1-yl)piperidine-1-carboxylate]: the inhibition constant Ki was determined as 19 nM.

On to `Cc1[nH]ncc1-c1cnc(N)c(OC(C)c2c(Cl)ccc(F)c2Cl)c1` (centres unmarked) [Example 14, 3-[1-(2,6-Dichloro-3-fluoro-phenyl)-ethoxy]-5-(5-methyl-1H-pyrazol-4-yl)-pyridin-2-ylamine], for which the Ki worked out at 700 nM.

On to `CC(Oc1cc(-c2cnn(CC3CN(S(C)(=O)=O)C3)c2)cnc1N)c1c(Cl)ccc(F)c1Cl` (centres unmarked) [Example 107, 3-[1-(2,6-dichloro-3-fluorophenyl)ethoxy]-5-(1-{[1-(methylsulfonyl)azetidin-3-yl]methyl}-1H-pyrazol-4-yl)pyridin-2-amine], for which the inhibition constant (Ki) was determined as 44 nM.

As for `CCN(CC)C(=O)C(C)(C)n1cc(-c2cnc(N)c(OC(C)c3c(Cl)ccc(F)c3Cl)c2)cn1` (centres unmarked) [Example 55, 2-(4-{6-Amino-5-[1-(2,6-dichloro-3-fluoro-phenyl)-ethoxy]-pyridin-3-yl}-pyrazol-1-yl)-N,N-diethyl-isobutyramide], the inhibitory constant (Ki) amounted to 396 nM.

For `CC(Oc1cc(-c2cnn(CC3CN(C(C)C)C3)c2)cnc1N)c1c(Cl)ccc(F)c1Cl` (centres unmarked) [Example 108, 3-[1-(2,6-dichloro-3-fluorophenyl)ethoxy]-5-{1-[(1-isopropylazetidin-3-yl)methyl]-1H-pyrazol-4-yl}pyridin-2-amine], the Ki worked out at 57 nM.

For `CCOC(=O)[C@H]1CC1Cn1cc(-c2cnc(N)c(OC(C)c3c(Cl)ccc(F)c3Cl)c2)cn1` (stereo in doubt) [Example 9, ethyl 2-[(4-{6-amino-5-[1-(2,6-dichloro-3-fluorophenyl)ethoxy]pyridin-3-yl}-1H-pyrazol-1-yl)methyl]cyclopropanecarboxylate], the Ki amounted to 42 nM.

In the case of `COC(=O)C1CC(n2cc(-c3cnc(N)c(OC(C)c4c(Cl)ccc(F)c4Cl)c3)cn2)CN1` (centres unmarked) [Example 88, 4-(4-{6-Amino-5-[1-(2,6-dichloro-3-fluoro-phenyl)-ethoxy]-pyridin-3-yl}-pyrazol-1-yl)-pyrrolidine-2-carboxylic acid methyl ester], the inhibition constant (Ki) was found to be 34 nM.

Regarding `CC(Oc1cc(-c2cnn(C(C)(C)C(=O)N3CCNCC3)c2)cnc1N)c1c(Cl)ccc(F)c1Cl` (centres unmarked) [Example 17, 2-(4-{6-Amino-5-[1-(2,6-dichloro-3-fluoro-phenyl)-ethoxy]-pyridin-3-yl}-pyrazol-1-yl)-2-methyl-1-piperazin-1-yl-propan-1-one], the Ki came out at 440 nM.

As to `CC(Oc1cc(-c2cnn(C(C)(C)CN(C)C)c2)cnc1N)c1c(Cl)ccc(F)c1Cl` (centres unmarked) [Example 60, 3-[1-(2,6-Dichloro-3-fluoro-phenyl)-ethoxy]-5-[1-(2-dimethylamino-1,1-dimethyl-ethyl)-1H-pyrazol-4-yl]-pyridin-2-ylamine], the inhibition constant Ki was 84 nM.

For the compound `COCCNC(=O)C(C)(C)n1cc(-c2cnc(N)c(OC(C)c3c(Cl)ccc(F)c3Cl)c2)cn1` (centres unmarked) [Example 34, 2-(4-{6-Amino-5-[1-(2,6-dichloro-3-fluoro-phenyl)-ethoxy]-pyridin-3-yl}-pyrazol-1-yl)-N-(2-methoxy-ethyl)-isobutyramide], the Ki stood at 90 nM.

Turning to `C[C@@H](Oc1nc(-c2cnn(C3CCN(C(=O)CO)CC3)c2)cnc1N)c1c(Cl)ccc(F)c1Cl` [Example 68, 1-[4-(4-{5-Amino-6-[(R)-1-(2,6-dichloro-3-fluoro-phenyl)-ethoxy]-pyrazin-2-yl}-pyrazol-1-yl)-piperidin-1-yl]-2-hydroxy-ethanone], the Ki came out at 15 nM.

Turning to `CC(Oc1cc(-c2cnn(CC3COCO3)c2)cnc1N)c1c(Cl)ccc(F)c1Cl` (centres unmarked) [Example 84, 3-[1-(2,6-Dichloro-3-fluoro-phenyl)-ethoxy]-5-(1-[1,3]dioxolan-4-ylmethyl-1H-pyrazol-4-yl)-pyridin-2-ylamine], the Ki came to 61 nM.

In the case of `CC(Oc1cc(-c2cnn(CC3CN(C(=O)OC(C)(C)C)C3)c2)cnc1N)c1c(Cl)ccc(F)c1Cl` (centres unmarked) [Example 1, tert-butyl 3-[(4-{6-amino-5-[1-(2,6-dichloro-3-fluorophenyl)ethoxy]pyridin-3-yl}-1H-pyrazol-1-yl)methyl]azetidine-1-carboxylate], the Ki amounted to 66 nM.

As for `CC(Oc1cc(-c2cnn(C3CCN(C(=O)OC(C)(C)C)CC3)c2)cnc1N)c1c(Cl)ccc(F)c1Cl` (centres unmarked) [Example 94, tert-butyl 4-(4-{6-amino-5-[1-(2,6-dichloro-3-fluorophenyl)ethoxy]pyridin-3-yl}-1H-pyrazol-1-yl)piperidine-1-carboxylate], the inhibitory constant (Ki) was found to be 35 nM.
